Test results: US10351575B2, “Bicyclic urea, thiourea, guanidine and cyanoguanidine compounds useful for the treatment of pain” (Array BioPharma Inc., priority 2012, dated 2019)

What was measured:
Assay in all cases: KinaseProfiler off-target kinase profiling
Assay type in all cases: biochemical
Settings in all cases: 10 μM, ATP near Km
[1] = target: MELK (Homo sapiens (Human), UniProt Q14680)
Summary of the method: (§1)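 Single-point profiling: the compound is run at 10 μM against the kinase, ATP being set near that enzyme's Km. Duplicate determinations are averaged and expressed as POC.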

[2] = target: EphA3 (Homo sapiens (Human), UniProt P29320)
Summary of the method: as §1

[3] = target: PKCgamma (Homo sapiens (Human), UniProt P05129)
Summary of the method: as §1

[4] = target: GRK5 (Homo sapiens (Human), UniProt P34947)
Summary of the method: as §1

[5] = target: DAPK3 (Homo sapiens (Human), UniProt O43293)
Chain of DAPK3 (O43293 whole entry): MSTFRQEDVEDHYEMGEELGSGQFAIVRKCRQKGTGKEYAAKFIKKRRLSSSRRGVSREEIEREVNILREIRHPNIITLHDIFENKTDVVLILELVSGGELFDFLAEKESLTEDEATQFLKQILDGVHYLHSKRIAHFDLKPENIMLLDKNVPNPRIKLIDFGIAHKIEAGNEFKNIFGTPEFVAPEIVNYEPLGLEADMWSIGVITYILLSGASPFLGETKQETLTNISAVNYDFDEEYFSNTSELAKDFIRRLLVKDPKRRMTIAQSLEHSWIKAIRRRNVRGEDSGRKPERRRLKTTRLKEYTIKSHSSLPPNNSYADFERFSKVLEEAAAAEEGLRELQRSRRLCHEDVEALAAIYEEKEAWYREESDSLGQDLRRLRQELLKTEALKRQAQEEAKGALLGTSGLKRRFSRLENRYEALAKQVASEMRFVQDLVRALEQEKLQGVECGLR
Summary of the method: as §1

[6] = target: CK1gamma1 (Homo sapiens (Human), UniProt Q9HCP0)
Summary of the method: as §1

[7] = target: PDGFRbeta (Homo sapiens (Human), UniProt P09619)
Summary of the method: as §1

[8] = target: Ret (Homo sapiens (Human), UniProt P07949)
Summary of the method: as §1

[9] = target: Plk2 (Homo sapiens (Human), UniProt Q9NYY3)
Summary of the method: as §1

[10] = target: SIK (Homo sapiens (Human), UniProt P57059)
Chain of SIK (P57059 whole entry): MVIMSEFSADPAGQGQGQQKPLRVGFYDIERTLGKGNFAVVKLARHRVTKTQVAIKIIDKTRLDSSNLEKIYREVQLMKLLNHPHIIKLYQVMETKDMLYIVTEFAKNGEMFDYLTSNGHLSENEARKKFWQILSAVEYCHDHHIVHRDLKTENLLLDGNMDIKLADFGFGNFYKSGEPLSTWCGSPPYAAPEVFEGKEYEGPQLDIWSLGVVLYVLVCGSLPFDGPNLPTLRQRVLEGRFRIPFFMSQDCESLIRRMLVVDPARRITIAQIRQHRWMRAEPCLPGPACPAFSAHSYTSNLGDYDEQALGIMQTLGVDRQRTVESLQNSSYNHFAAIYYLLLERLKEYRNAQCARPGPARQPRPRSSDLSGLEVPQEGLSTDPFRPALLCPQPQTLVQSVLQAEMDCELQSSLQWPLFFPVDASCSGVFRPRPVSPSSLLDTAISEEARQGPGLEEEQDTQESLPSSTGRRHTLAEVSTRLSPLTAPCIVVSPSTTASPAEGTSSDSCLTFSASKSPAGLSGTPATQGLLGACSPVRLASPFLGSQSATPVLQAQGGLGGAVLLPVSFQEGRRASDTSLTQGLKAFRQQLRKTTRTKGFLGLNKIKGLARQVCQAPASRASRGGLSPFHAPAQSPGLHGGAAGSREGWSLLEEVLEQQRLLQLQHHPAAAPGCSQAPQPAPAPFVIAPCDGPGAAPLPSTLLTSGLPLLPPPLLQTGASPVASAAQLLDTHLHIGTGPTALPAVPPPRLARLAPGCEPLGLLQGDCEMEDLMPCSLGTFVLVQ
Summary of the method: as §1

[11] = target: BTK (Homo sapiens (Human), UniProt Q06187)
Summary of the method: as §1

[12] = target: BLK_m (Mus musculus (Mouse), UniProt P16277)
Summary of the method: as §1

[13] = target: SGK1 (Homo sapiens (Human), UniProt O00141)
Chain of SGK1 (O00141 whole entry): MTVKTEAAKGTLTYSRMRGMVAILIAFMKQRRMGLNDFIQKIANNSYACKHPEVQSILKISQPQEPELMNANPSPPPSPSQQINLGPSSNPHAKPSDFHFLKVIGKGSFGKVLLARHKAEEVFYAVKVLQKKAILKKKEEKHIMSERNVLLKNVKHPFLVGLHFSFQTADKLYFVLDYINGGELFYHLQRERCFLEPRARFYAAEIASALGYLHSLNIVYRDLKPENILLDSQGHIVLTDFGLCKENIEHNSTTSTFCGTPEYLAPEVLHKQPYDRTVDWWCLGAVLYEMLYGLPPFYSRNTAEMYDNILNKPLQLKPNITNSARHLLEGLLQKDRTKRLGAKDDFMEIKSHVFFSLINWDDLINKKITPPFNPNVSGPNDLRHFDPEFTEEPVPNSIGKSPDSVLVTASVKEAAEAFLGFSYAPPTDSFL
Summary of the method: as §1

[14] = target: PKCeta (Homo sapiens (Human), UniProt P24723)
Chain of PKCeta (P24723 whole entry): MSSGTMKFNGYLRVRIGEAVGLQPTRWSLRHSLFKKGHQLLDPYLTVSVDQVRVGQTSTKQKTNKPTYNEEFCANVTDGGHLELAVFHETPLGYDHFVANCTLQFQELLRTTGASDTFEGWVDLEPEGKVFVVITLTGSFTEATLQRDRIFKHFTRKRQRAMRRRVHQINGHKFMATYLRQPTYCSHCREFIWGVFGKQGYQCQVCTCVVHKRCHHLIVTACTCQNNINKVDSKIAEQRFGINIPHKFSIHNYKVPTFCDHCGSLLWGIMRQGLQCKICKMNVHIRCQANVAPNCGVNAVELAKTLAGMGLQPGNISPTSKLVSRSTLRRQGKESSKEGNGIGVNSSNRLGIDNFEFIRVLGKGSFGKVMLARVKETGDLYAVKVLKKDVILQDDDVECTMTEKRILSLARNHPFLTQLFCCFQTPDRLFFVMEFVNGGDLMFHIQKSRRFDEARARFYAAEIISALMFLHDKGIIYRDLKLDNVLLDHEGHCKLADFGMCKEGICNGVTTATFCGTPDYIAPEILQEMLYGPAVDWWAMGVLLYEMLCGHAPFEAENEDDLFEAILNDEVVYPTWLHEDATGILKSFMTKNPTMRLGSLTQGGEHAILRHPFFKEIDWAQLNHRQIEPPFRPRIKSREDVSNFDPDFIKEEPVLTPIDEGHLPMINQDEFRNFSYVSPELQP
Summary of the method: as §1

[15] = target: MAPKAP-K2 (Homo sapiens (Human), UniProt P49137)
Summary of the method: as §1

[16] = target: STK33 (Homo sapiens (Human), UniProt Q9BYT3)
Summary of the method: as §1

[17] = target: NEK3 (Homo sapiens (Human), UniProt P51956)
Summary of the method: as §1

[18] = target: NEK6 (Homo sapiens (Human), UniProt Q9HC98)
Chain of NEK6 (Q9HC98 whole entry): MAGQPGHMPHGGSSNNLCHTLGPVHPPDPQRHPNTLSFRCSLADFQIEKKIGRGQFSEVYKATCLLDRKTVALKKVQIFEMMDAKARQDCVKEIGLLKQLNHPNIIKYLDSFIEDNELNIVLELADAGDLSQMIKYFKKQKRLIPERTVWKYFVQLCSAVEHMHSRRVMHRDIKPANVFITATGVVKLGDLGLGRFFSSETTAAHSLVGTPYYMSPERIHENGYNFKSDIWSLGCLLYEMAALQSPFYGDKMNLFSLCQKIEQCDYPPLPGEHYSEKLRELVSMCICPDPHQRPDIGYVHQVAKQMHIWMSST
Summary of the method: as §1

[19] = target: AKT1 (Homo sapiens (Human), UniProt P31749)
Chain of AKT1 (P31749 whole entry): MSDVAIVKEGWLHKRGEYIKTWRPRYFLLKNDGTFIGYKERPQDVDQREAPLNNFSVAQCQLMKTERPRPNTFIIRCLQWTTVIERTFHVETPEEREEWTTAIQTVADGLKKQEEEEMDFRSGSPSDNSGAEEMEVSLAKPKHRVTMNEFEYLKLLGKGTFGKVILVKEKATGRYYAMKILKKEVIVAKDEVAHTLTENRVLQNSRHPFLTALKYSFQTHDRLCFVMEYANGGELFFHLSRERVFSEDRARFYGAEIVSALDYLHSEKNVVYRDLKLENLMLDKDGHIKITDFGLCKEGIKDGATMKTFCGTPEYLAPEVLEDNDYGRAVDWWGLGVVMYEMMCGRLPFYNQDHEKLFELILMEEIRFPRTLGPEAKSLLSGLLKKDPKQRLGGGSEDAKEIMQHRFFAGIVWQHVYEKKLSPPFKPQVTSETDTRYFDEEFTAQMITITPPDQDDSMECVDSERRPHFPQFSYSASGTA
Summary of the method: as §1

[20] = target: Fgr (Homo sapiens (Human), UniProt P09769)
Summary of the method: as §1

[21] = target: JNK3 (Homo sapiens (Human), UniProt P53779)
Chain of JNK3 (P53779 whole entry): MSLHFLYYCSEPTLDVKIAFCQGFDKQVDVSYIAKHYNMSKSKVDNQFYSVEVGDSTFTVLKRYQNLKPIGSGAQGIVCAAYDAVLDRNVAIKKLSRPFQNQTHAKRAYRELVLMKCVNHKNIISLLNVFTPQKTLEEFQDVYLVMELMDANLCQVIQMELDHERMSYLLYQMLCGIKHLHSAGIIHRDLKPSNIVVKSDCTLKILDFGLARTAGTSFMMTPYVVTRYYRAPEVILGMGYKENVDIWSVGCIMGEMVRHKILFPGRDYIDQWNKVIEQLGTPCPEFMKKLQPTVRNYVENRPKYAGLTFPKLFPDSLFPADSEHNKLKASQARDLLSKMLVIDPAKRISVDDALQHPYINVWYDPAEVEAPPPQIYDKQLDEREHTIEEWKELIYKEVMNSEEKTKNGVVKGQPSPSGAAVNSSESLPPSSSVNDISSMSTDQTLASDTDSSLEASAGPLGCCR
Summary of the method: as §1

[22] = target: PKCalpha (Homo sapiens (Human), UniProt P17252)
Summary of the method: as §1

[23] = target: TBK1 (Homo sapiens (Human), UniProt Q9UHD2)
Chain of TBK1 (Q9UHD2 whole entry): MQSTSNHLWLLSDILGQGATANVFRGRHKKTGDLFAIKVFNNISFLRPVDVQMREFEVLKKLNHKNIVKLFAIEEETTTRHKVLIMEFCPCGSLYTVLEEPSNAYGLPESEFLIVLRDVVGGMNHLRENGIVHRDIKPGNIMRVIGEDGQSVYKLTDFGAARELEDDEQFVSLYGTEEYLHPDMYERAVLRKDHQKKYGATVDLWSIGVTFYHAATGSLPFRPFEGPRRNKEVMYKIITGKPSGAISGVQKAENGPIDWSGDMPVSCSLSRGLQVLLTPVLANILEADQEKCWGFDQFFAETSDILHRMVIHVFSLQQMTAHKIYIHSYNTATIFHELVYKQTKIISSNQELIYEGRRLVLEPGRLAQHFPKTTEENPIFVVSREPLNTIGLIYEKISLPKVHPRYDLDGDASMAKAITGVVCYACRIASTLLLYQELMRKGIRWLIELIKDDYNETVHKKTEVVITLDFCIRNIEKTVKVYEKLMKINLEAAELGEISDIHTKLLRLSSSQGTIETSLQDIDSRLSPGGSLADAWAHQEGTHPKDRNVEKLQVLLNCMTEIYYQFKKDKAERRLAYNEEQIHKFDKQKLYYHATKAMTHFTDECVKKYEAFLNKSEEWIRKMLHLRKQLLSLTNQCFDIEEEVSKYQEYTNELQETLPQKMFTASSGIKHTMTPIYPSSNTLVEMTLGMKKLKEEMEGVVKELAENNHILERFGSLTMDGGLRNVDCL
Summary of the method: as §1

[24] = target: ERK1 (Homo sapiens (Human), UniProt P27361)
Summary of the method: as §1

[25] = target: ULK2 (Homo sapiens (Human), UniProt Q8IYT8)
Summary of the method: as §1

[26] = target: TAK1 (Homo sapiens (Human), UniProt O43318)
Summary of the method: as §1

[27] = target: EphB3 (Homo sapiens (Human), UniProt P54753)
Summary of the method: as §1

[28] = target: NEK2 (Homo sapiens (Human), UniProt P51955)
Summary of the method: as §1

[29] = target: EphA1 (Homo sapiens (Human), UniProt P21709)
Summary of the method: as §1

[30] = target: GRK7 (Homo sapiens (Human), UniProt Q8WTQ7)
Summary of the method: as §1

[31] = target: Syk (Homo sapiens (Human), UniProt P43405)
Summary of the method: as §1

[32] = target: CSK (Homo sapiens (Human), UniProt P41240)
Summary of the method: as §1

[33] = target: MuSK (Homo sapiens (Human), UniProt O15146)
Summary of the method: as §1

[34] = target: PKCdelta (Homo sapiens (Human), UniProt Q05655)
Chain of PKCdelta (Q05655 whole entry): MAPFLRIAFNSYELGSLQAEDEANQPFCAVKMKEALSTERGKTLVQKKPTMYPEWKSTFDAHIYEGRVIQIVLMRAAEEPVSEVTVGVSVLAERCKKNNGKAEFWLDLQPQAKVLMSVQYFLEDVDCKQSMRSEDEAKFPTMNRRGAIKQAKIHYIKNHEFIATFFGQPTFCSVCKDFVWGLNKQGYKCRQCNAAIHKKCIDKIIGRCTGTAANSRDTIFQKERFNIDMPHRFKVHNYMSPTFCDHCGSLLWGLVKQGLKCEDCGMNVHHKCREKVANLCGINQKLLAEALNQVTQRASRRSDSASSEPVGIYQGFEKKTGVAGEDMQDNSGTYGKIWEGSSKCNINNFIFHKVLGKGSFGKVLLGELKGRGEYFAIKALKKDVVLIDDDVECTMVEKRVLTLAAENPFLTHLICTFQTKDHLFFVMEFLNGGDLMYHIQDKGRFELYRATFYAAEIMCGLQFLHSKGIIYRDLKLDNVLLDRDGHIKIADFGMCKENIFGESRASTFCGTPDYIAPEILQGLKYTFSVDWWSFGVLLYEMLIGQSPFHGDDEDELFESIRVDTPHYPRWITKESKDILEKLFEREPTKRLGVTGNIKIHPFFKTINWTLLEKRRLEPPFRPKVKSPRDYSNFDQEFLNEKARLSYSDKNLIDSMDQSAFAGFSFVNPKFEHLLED
Summary of the method: as §1

Cc1c(-c2cnn(C)c2)nn(-c2ccccc2)c1NC(=O)N[C@H]1CCCc2ccccc21 [Example 2, (S)-1-(1′,4-dimethyl-1-phenyl-1H,1′H-3,4′-bipyrazol-5-yl)-3-(1,2,3,4-tetrahydronaphthalen-1-yl)urea]
Avg. POC [1]: 142 POC
Avg. POC [2]: 123.5 POC
Avg. POC [3]: 102 POC
Avg. POC [4]: 106.5 POC
Avg. POC [5]: 125.5 POC
Avg. POC [6]: 116.5 POC
Avg. POC [7]: 149 POC
Avg. POC [8]: 118.5 POC
Avg. POC [9]: 102 POC
Avg. POC [10]: 121.5 POC
Avg. POC [11]: 111.5 POC
Avg. POC [12]: 126 POC
Avg. POC [13]: 150 POC
Avg. POC [14]: 107 POC
Avg. POC [15]: 137.5 POC
Avg. POC [16]: 110.5 POC
Avg. POC [17]: 105 POC
Avg. POC [18]: 125.5 POC
Avg. POC [19]: 130.5 POC
Avg. POC [20]: 131 POC
Avg. POC [21]: 117.5 POC
Avg. POC [22]: 96 POC
Avg. POC [23]: 116 POC
Avg. POC [24]: 120.5 POC
Avg. POC [25]: 99 POC
Avg. POC [26]: 106 POC
Avg. POC [27]: 110 POC
Avg. POC [28]: 104 POC
Avg. POC [29]: 85 POC
Avg. POC [30]: 108.5 POC
Avg. POC [31]: 115 POC
Avg. POC [32]: 124 POC
Avg. POC [33]: 103.5 POC
Avg. POC [34]: 95 POC

Cc1c(-c2cnn(C)c2)nn(-c2ccccc2)c1NC(=O)NC1CCOc2cc(F)ccc21 (centres unmarked) [Example 12, 1-(1′,4-dimethyl-1-phenyl-1H,1′H-[3,4′-bipyrazol]-5-yl)-3-(7-fluorochroman-4-yl)urea]
Avg. POC [1]: 67 POC
Avg. POC [2]: 114.5 POC
Avg. POC [3]: 104.5 POC
Avg. POC [4]: 83.5 POC
Avg. POC [5]: 103 POC
Avg. POC [6]: 98.5 POC
Avg. POC [7]: 125.5 POC
Avg. POC [8]: 85 POC
Avg. POC [9]: 103.5 POC
Avg. POC [10]: 133.5 POC
Avg. POC [11]: 127 POC
Avg. POC [12]: 112 POC
Avg. POC [13]: 129 POC
Avg. POC [14]: 100 POC
Avg. POC [15]: 122.5 POC
Avg. POC [16]: 106.5 POC
Avg. POC [17]: 102 POC
Avg. POC [18]: 121 POC
Avg. POC [19]: 105.5 POC
Avg. POC [20]: 114.5 POC
Avg. POC [21]: 107.5 POC
Avg. POC [22]: 104 POC
Avg. POC [23]: 103 POC
Avg. POC [24]: 105 POC
Avg. POC [25]: 99 POC
Avg. POC [26]: 97 POC
Avg. POC [27]: 89 POC
Avg. POC [28]: 91.5 POC
Avg. POC [29]: 100 POC
Avg. POC [30]: 117 POC
Avg. POC [31]: 108.5 POC
Avg. POC [32]: 131.5 POC
Avg. POC [33]: 98.5 POC
Avg. POC [34]: 97.5 POC
